Structures can show the parent of a compound that is named as a salt. Where two headings read alike, the source gives them in different places.
Legend:
[1] = tested on: Nostz rat; experiment: Antidiabetic activity in the Nostz rat (non-insulin-dependent diabetes induced using streptozotocin); type: in vivo; settings: po, 2 h, blood 2 h after final administration, diabetic rats, read-out: percentage change in glycaemia relative to d0 (before treatment); for change in vivo at 20 mg/kg: 20 mg/kg/d oral; for change in vivo at 200 mg/kg: 200 mg/kg/d oral
Description: The antidiabetic activity of the compounds of formula (I) was determined orally on an experimental model of non-insulin-dependent diabetes induced in the rat using streptozotocin.
The model of non-insulin-dependent diabetes is obtained in rats by neonatal injection (on the day of birth) of streptozotocin.
The diabetic rats used are 8 weeks old. The animals are kept from the day of their birth to the day of the experiment in an animal house at a regulated temperature of from 21 to 22° C. and are subjected to a fixed cycle of light (from 7.00 am to 7.00 pm) and darkness (from 7.00 pm to 7.00 am). Their diet consisted of a maintenance diet; water and food were provided ad libitum, except for the 2 hours fasting prior to the tests in which food is withdrawn (post-absorptive state).
The rats are treated orally for one (d1) or four (d4) days with the test product. Two hours after the final administration of the product and 30 minutes after anaesthesia of the animals with sodium pentobarbital (Nembutalo®), […] of blood is sampled from the end of the tail.

SMILES	melting point	change in vivo at 20 mg/kg ([1]; d1 (one day of treatment))	change in vivo at 20 mg/kg ([1]; d4 (four days of treatment))	change in vivo at 200 mg/kg ([1]; d1 (one day of treatment))	change in vivo at 200 mg/kg ([1]; d4 (four days of treatment))
CC(C)c1cccc(C(C)C)c1NC(=O)CNC(=N)N (as salt: HCl) [Compound 2]	260 to 262 °C	–	–	–	–
Cc1cccc(C)c1NC(=O)[C@H](C)NC(=N)N (as salt: HCl) [Compound 6]	159 to 161 °C	–	–	–	–
Cc1cc(C)c(NC(=O)CNC(=N)N)c(C)c1 (as salt: HCl) [Compound 7]	> 260 °C	–	–	–	–
N=C(N)NCC(=O)N(Cc1ccccc1)Cc1ccccc1 (as salt: HCl) [Compound 11]	217 to 219 °C	–	–	–	–
N=C(N)NCC(=O)Nc1c(Cl)cccc1Cl (as salt: HCl) [Compound 12]	181 to 183 °C	–	–	–	–
N=C(N)NCC(=O)NCc1ccccc1 (as salt: HCl) [Compound 15]	144 to 146 °C	–	–	–	–
CSc1cc(C)nc(SC)c1NC(=O)CNC(=N)N (as salt: HCl) [Example 3]	249 to 251 °C	–	–	–	–
Cc1cccc(C)c1NC(=O)CN(C)C(=N)N (as salt: HCl) [Example 5]	227 to 229 °C	–	–	–	–
Cc1cccc(C)c1NC(=O)[C@H](C)NC(=N)N [Compound 6]	–	8%	-3%	-4%	-18%
Cc1cc(C)c(NC(=O)CNC(=N)N)c(C)c1 [Compound 7]	–	-9%	-9%	-3%	-10%
CCC(C)[C@H](NC(=N)N)C(=O)Nc1c(C)cccc1C (stereo partly drawn) [Compound 8]	–	-11%	-14%	-8%	-10%
Cc1cccc(C)c1NC(=O)[C@H](CC(C)C)NC(=N)N [Compound 9]	–	-4%	-15%	7%	-4%
Cc1cccc(C)c1NC(=O)[C@H](C(C)C)N(C)C(=N)N [Compound 10]	–	-13%	-15%	-3%	-16%
N=C(N)NCC(=O)N(Cc1ccccc1)Cc1ccccc1 [Compound 11]	–	-14%	-9%	-3%	-16%
N=C(N)NCC(=O)Nc1c(Cl)cccc1Cl [Compound 12]	–	-9%	-13%	-14%	-27%
Cc1cccc(C)c1NC(=O)CNC(=N)N [Example 1]	255 to 257 °C	-3%	-7%	-20%	-24%
CSc1cc(C)nc(SC)c1NC(=O)CNC(=N)N [Example 3]	–	7%	-7%	-5%	-4%
Cc1cccc(C)c1NC(=O)CCNC(=N)N [Example 4]	223 to 225 °C	-1%	-11%	-13%	-15%
Cc1cccc(C)c1NC(=O)CN(C)C(=N)N [Example 5]	–	-2%	-7%	-16%	-25%

— patent US6518458B1, “(Aminoiminomethyl) amino) alkane-carboxamides and their applications in therapy” (Merck Patent GmbH, priority 1999, dated 2003)
